Read-outs that look alike come from different tables or passages of the source.

Experimental findings from patent US20250262201A1, “COMPOUNDS AND METHODS USEFUL FOR STABILIZING PHENYLALANINE HYDROXYLASE MUTATIONS” (Agios Pharmaceuticals, Inc., priority 2022, published 2025) are described below.

This assay addresses T1, human PAH with the R408W mutation (Homo sapiens, UniProt P00439, R408W).
T1 construct: expressed in transfected cells
T1 sequence (P00439 1-452 R408W): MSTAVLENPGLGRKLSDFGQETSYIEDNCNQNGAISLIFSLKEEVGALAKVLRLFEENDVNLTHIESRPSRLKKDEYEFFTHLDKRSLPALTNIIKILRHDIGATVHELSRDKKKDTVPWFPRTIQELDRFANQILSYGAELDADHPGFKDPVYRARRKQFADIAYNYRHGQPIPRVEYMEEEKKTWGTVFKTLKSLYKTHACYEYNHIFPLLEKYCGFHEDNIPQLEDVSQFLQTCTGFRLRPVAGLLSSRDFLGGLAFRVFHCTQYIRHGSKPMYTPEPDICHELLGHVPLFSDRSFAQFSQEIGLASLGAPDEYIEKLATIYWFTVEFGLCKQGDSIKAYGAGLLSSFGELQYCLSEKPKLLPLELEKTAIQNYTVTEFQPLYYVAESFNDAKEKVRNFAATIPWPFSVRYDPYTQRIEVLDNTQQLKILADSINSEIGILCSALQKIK
The assay is described as follows: Cell Based Phenylalanine Flux Assay. The following applies: 13C-Tyrosine by LC-MS, average where tested multiple times. Further details: scale not given here.

Setting [1] is: A375 cells expressing human R408W PAH, 24 hrs compound incubation, read-out: AC50.
The mark [2] stands for this setting: A375 R408W cells, 24 hrs with compound, then 20 μM sepiapterin and 800 μM 13C9,15N-Phenylalanine for 4 hours, read-out: AC50.
Setting [3] is: A375 R408W cells, 24 hrs with compound, then 20 μM sepiapterin and 800 μM 13C9,15N-Phenylalanine for 4 hours.

Take `CC(C)(C)c1ncc(C(=O)N2CCc3[nH]cnc3[C@@H]2c2cc3ccccc3cn2)s1` [Example 317, (S)-(2-(tert-butyl)thiazol-5-yl)(4-(isoquinolin-3-yl)-6,7-dihydro-1H-imidazo[4,5-c]pyridin-5(4H)-yl)methanone]: the AC50 (as a rule, the concentration giving half of the maximal activity seen) under setting [1] is above 5 µM.
As for `CN(C)Cc1nnc(C(=O)N2CCc3[nH]cnc3C2c2ccc3ccccc3n2)o1` (stereo not drawn), the AC50 under setting [2] was above 5 µM.
On the same count and under the same terms, to `CC1CN(C(=O)c2ocnc2C(F)(F)F)C(c2cc3ccccc3cn2)c2nc[nH]c21` (stereo not drawn) belongs 1 to 5 µM.
Turning to `O=C(c1nnc(-c2ccncn2)o1)N1CCc2[nH]cnc2[C@H]1c1cc2ccccc2cn1` [Example 471, (R)-(4-(isoquinolin-3-yl)-6,7-dihydro-1H-imidazo[4,5-c]pyridin-5(4H)-yl)(5-(pyrimidin-4-yl)-1,3,4-oxadiazol-2-yl)methanone], the AC50 under setting [1] was below 0.5 µM.
Same read-out and setting: for `CC(C)(C)c1ncc(C(=O)N2CCc3[nH]cnc3C2c2ccc3ccccc3n2)s1` (stereo in doubt) [Example 4, (S)-(2-(tert-butyl)thiazol-5-yl)(4-(quinolin-2-yl)-6,7-dihydro-1H-imidazo[4,5-c]pyridin-5(4H)-yl)methanone] the value was above 5 µM; for `Cn1cc(C(=O)N2CCc3[nH]cnc3C2c2ccc3ccccc3n2)c(Cl)n1` (stereo in doubt) [Example 88, (R)-(3-chloro-1-methyl-1H-pyrazol-4-yl)(4-(quinolin-2-yl)-6,7-dihydro-1H-imidazo[4,5-c]pyridin-5(4H)-yl)methanone], below 0.5 µM.
For `Cn1cc(-c2ncc(C(=O)N3CCc4[nH]cnc4[C@@H]3c3cc4ccccc4cn3)s2)cn1` [Example 303, (S)-(4-(isoquinolin-3-yl)-6,7-dihydro-1H-imidazo[4,5-c]pyridin-5(4H)-yl)(2-(1-methyl-1H-pyrazol-4-yl)thiazol-5-yl)methanone], the AC50 under setting [1] is above 5 µM.
For `N#Cc1ncoc1C(=O)N1CCc2[nH]cnc2C1c1cn2ccccc2n1` (stereo not drawn), the AC50 under setting [2] lay in the range of 1 to 5 µM.
Regarding `CN(C)Cc1ccc2c(C(=O)N3CCc4[nH]cnc4C3c3cn4ccccc4n3)cnn2c1` (stereo not drawn), under setting [2], the AC50 was above 5 µM.
For `O=C(c1nnc(-c2cn[nH]c2)o1)N1CCc2[nH]cnc2[C@H]1c1cc2ccccc2cn1` [Example 454, (R)-(5-(1H-pyrazol-4-yl)-1,3,4-oxadiazol-2-yl)(4-(isoquinolin-3-yl)-6,7-dihydro-1H-imidazo[4,5-c]pyridin-5(4H)-yl)methanone], the AC50 under setting [1] was in the range of 0.5 to 1 µM.
For the compound `O=C(c1nnc(COC(F)(F)F)o1)N1CCc2[nH]cnc2C1c1ccc2ccccc2n1` (stereo not drawn), the AC50 under setting [2] was 1 to 5 µM.
As to `O=C(N1CCc2[nH]cnc2C1c1ccc2ccccc2n1)C(F)(F)C1(O)CCC1` (stereo in doubt) [Example 55, (R)-2,2-difluoro-2-(1-hydroxycyclobutyl)-1-(4-(quinolin-2-yl)-6,7-dihydro-1H-imidazo[4,5-c]pyridin-5(4H)-yl)ethanone], the AC50 under setting [1] was 0.5 to 1 µM.
On the same count and under the same terms, for `CC(C)(F)c1ncc(C(=O)N2CCc3[nH]cnc3C2c2ccc3ccccc3n2)o1` (stereo in doubt) [Example 17, (R)-(2-(2-fluoropropan-2-yl)oxazol-5-yl)(4-(quinolin-2-yl)-6,7-dihydro-1H-imidazo[4,5-c]pyridin-5(4H)-yl)methanone] the value was below 0.5 µM.
Still for that read-out and setting: to `Cn1ccc(-c2ccc3c(C(=O)N4CCc5[nH]cnc5[C@H]4c4cc5ccccc5cn4)cnn3c2)n1` [Example 481, (R)-(4-(isoquinolin-3-yl)-6,7-dihydro-1H-imidazo[4,5-c]pyridin-5(4H)-yl)(6-(1-methyl-1H-pyrazol-3-yl)pyrazolo[1,5-a]pyridin-3-yl)methanone] belongs below 0.5 µM.
With `CC1CN(C(=O)c2nnc(C(C)(C)O)o2)C(c2cc3ccccc3cn2)c2nc[nH]c21` [(4S, 7R) diastereomer of 2-{5-[4-(isoquinolin-3-yl)-7-methyl], the AC50 entry under setting [3] is “E, E”.
As to `Cc1ccc(-c2nnc(C(=O)N3CCc4[nH]cnc4[C@H]3c3ncc4ccccc4n3)o2)nc1` [Example 171, (S)-(5-(5-methylpyridin-2-yl)-1,3,4-oxadiazol-2-yl)(4-(quinazolin-2-yl)-6,7-dihydro-1H-imidazo[4,5-c]pyridin-5(4H)-yl)methanone], the AC50 under setting [1] is below 0.5 µM.
For `O=C(c1nnc(-c2cc[nH]n2)o1)N1CCc2[nH]cnc2[C@H]1c1ncc2ccccc2n1` [Example 175, (S)-(5-(1H-pyrazol-3-yl)-1,3,4-oxadiazol-2-yl)(4-(quinazolin-2-yl)-6,7-dihydro-1H-imidazo[4,5-c]pyridin-5(4H)-yl)methanone], under setting [1], the AC50 was 0.5 to 1 µM.
Same read-out and setting: for `O=C(c1ccnn1C(F)F)N1CCc2[nH]cnc2[C@H]1c1cc2ccccc2nn1` [Example 213, (S)-(4-(cinnolin-3-yl)-6,7-dihydro-1H-imidazo[4,5-c]pyridin-5(4H)-yl)(1-(difluoromethyl)-1H-pyrazol-5-yl)methanone] the value was below 0.5 µM.
Turning to `CC(C)(O)c1nc(C(F)(F)F)c(C(=O)N2CCc3[nH]cnc3C2c2ccc3ccccc3n2)o1` (stereo not drawn), under setting [3], the AC50 entry is given as “E, E”.
Take `O=C(CC1CC(F)C1)N1CCc2[nH]cnc2[C@H]1c1cn2ccccc2n1` (stereo partly drawn) [Example 254, (R)-2-(3-fluorocyclobutyl)-1-(4-(imidazo[1,2-a]pyridin-2-yl)-6,7-dihydro-1H-imidazo[4,5-c]pyridin-5(4H)-yl)ethanone]: under setting [1], the AC50 was below 0.5 µM.
As to `O=C(c1nnc(-c2ccccn2)o1)N1CCc2[nH]cnc2C1c1cc2ccccc2nn1` (stereo not drawn), the AC50 under setting [2] was 1 to 5 µM.
`O=C(CC1(O)CCC1)N1CCc2[nH]cnc2C1c1ccc2ccccc2n1` (stereo in doubt) [Example 59, (R)-2-(1-hydroxycyclobutyl)-1-(4-(quinolin-2-yl)-6,7-dihydro-1H-imidazo[4,5-c]pyridin-5(4H)-yl)ethanone]: the AC50 under setting [1] was below 0.5 µM.
Turning to `O=C(c1ocnc1-c1ccccn1)N1CCc2[nH]cnc2[C@H]1c1cc2ccccc2cn1` [Example 354, (R)-(4-(isoquinolin-3-yl)-6,7-dihydro-1H-imidazo[4,5-c]pyridin-5(4H)-yl)(4-(pyridin-2-yl)oxazol-5-yl)methanone], the AC50 under setting [1] is below 0.5 µM.
The same measure, in the same setting: for `C[C@@H]1CN(C(=O)c2nnc(-c3ccccn3)o2)[C@H](c2cc3ccccc3cn2)c2nc[nH]c21` (single isomer, unassigned) [Example 388] the value was 0.5 to 1 µM.
In the case of `Cc1nc(CCN(C)C)oc1C(=O)N1CCc2[nH]cnc2C1c1ccc2ccccc2n1` (stereo not drawn), the AC50 under setting [2] lay within 1 to 5 µM.
As for `CC(F)(F)c1ncc(C(=O)N2CCc3[nH]cnc3[C@@H]2c2cn3ccccc3n2)s1` (single isomer, unassigned) [Example 235], the AC50 under setting [1] is above 5 µM.
With `COc1ccc(-c2nnc(C(=O)N3C[C@H](C)c4[nH]cnc4[C@H]3c3cc4ccccc4cn3)o2)nc1` [Example 516, ((4R,7S)-4-(isoquinolin-3-yl)-7-methyl-6,7-dihydro-1H-imidazo[4,5-c]pyridin-5(4H)-yl)(5-(5-methoxypyridin-2-yl)-1,3,4-oxadiazol-2-yl)methanone], the AC50 under setting [1] lay within 0.5 to 1 µM.
For the compound `O=C(c1ccn[nH]1)N1CCc2[nH]cnc2C1c1ccc2ccccc2n1` (stereo not drawn), the AC50 under setting [2] was above 5 µM.
With `O=C(CC1CC1)N1CCc2[nH]cnc2[C@@H]1c1cn2ccccc2n1` [Example 237, (S)-2-cyclopropyl-1-(4-(imidazo[1,2-a]pyridin-2-yl)-6,7-dihydro-1H-imidazo[4,5-c]pyridin-5(4H)-yl)ethanone], the half-maximal activity concentration (AC50) under setting [1] is above 5 µM.
In the case of `O=C(c1n[nH]c2ccccc12)N1CCc2[nH]cnc2C1c1ccc2ccccc2n1` (stereo not drawn), the AC50 under setting [2] was in the range of 1 to 5 µM.
Regarding `CN(C)c1nnc(C(=O)N2CCc3[nH]cnc3[C@H]2c2cc3ccccc3cn2)o1` [Example 366, (R)-(5-(dimethylamino)-1,3,4-oxadiazol-2-yl)(4-(isoquinolin-3-yl)-6,7-dihydro-1H-imidazo[4,5-c]pyridin-5(4H)-yl)methanone], under setting [1], the AC50 was below 0.5 µM.
Same read-out and setting: to `O=C(c1nnc(-c2ccc(C(F)(F)F)cn2)o1)N1CCc2[nH]cnc2[C@H]1c1ncc2ccccc2n1` [Example 170, (S)-(4-(quinazolin-2-yl)-6,7-dihydro-1H-imidazo[4,5-c]pyridin-5(4H)-yl)(5-(5-(trifluoromethyl)pyridin-2-yl)-1,3,4-oxadiazol-2-yl)methanone] belongs 0.5 to 1 µM; to `CN(C)Cc1ccc2c(C(=O)N3CCc4[nH]cnc4[C@H]3c3ncc4ccccc4n3)cnn2c1` [Example 155, (S)-(6-((dimethylamino)methyl)pyrazolo[1,5-a]pyridin-3-yl)(4-(quinazolin-2-yl)-6,7-dihydro-1H-imidazo[4,5-c]pyridin-5(4H)-yl)methanone], 0.5 to 1 µM.
On the same count and under the same terms, to `O=C(c1nnc(-c2cc(C(F)(F)F)ccn2)o1)N1CCc2[nH]cnc2[C@H]1c1ncc2ccccc2n1` [Example 173, (S)-(4-(quinazolin-2-yl)-6,7-dihydro-1H-imidazo[4,5-c]pyridin-5(4H)-yl)(5-(4-(trifluoromethyl)pyridin-2-yl)-1,3,4-oxadiazol-2-yl)methanone] belongs below 0.5 µM.
Consider `CC1CN(C(=O)c2nnc(N(C)C)o2)C(c2cc3ccccc3cn2)c2nc[nH]c21` (stereo not drawn), for which the AC50 under setting [2] lay in the range of 1 to 5 µM.
The same measure, in the same setting: to `O=C(C1CC1)N1CCc2nc[nH]c2C1c1cn2ccccc2n1` (stereo not drawn) belongs 1 to 5 µM.
